Literature values, collected in patent publication US7473804B2, “Polymorphs of atomoxetine hydrochloride” (Teva Pharmaceutical Fine Chemicals s.r.l., priority 2004, dated 2009).

Conditions: as disclosed in U.S. Pat. No. 4,018,895, EP 0 052 492, EP 0 721 777

CNCC[C@@H](Oc1ccccc1C)c1ccccc1 [Atomoxetine, (R)(−)-N-methyl-3-(2-methylphenoxy)-3-phenylpropylamine]
effectiveness relative to the (+)-enantiomer: about nine times more effective than the (+)-enantiomer | effectiveness relative to the racemic mixture (tomoxetine): about twice as effective as the racemic mixture
